# From patent publication US20240109868A1, “EP300/CBP MODULATOR, PREPARATION METHOD THEREFOR AND USE THEREOF” (Miracure Biotechnology Limited, priority 2022, published 2024)
# System: 22Rv1 Cell
# Assay: 22RV1 cell growth inhibition, CellTiter-Glo, 72 h
# Assay type: cell-based
# Conditions: Homo sapiens, 22Rv1, 72 h, 22RV1 cells, 72 h culture
# Method: 22RV1 or vCap cells were cultured in RPMI-1640 medium (10% fetal bovine serum and 100 units (per mL) of penicillin/streptomycin dual antibody were added to RPMI-1640) in a 37° C., 5% CO2 cell incubator. Cells at the logarithmic growth phase were inoculated onto a 96-well cell culture plate at 5×10^3 cells/100 μL/well and cultured overnight. Solutions of different concentrations of an active compound in DMSO were added, with the final concentration being 0.5% DMSO. The positive control was 1% TweeN2O, and the negative control was 0.5% DMSO. After 72 h of culture, an equal volume of CellTiter-Glo was added to each well, and the mixtures were mixed homogeneously by shaking for 2 min. The plate was let stand at room temperature for 10 min, and fluorescence signal values were read using a microplate reader. Data were analyzed using Prism 7.0 and graphs were generated. The values are shown as mean f SEM (N=2). […] The X-axis represents compound concentration (μM), and the Y-axis represents % inhibition.
row,SMILES,IC50
1,CC(=O)N1Cc2cc(C3CCC(=O)N(C)C3)cc(N3CCCc4cc(-c5cn(C)nc5C(=O)N(C)C)c(C(F)F)cc43)c2C1 (stereo not shown) [Compound M001227],> 1000 nM
2,"CNC(=O)N1CCc2cc(C3CCC(=O)N(C)C3)cc(Nc3cc(C(F)F)c(-c4cnn(C)c4)cc3F)c2C1 (stereo not shown) [Compound M001232, 8-((5-(difluoromethyl)-2-fluoro-4-(1-methyl-1H-pyrazol-4-yl)phenyl)amino)-N-methyl-6-(1-methyl-6-oxopiperidin-3-yl)-3,4-dihydroisoquinoline-2(1H)-carboxamide]",> 1000 nM
3,CC(=O)N1Cc2cc(C3CCC(=O)N(C)C3)cc(Nc3cc(C(F)F)c(-c4cnn(C)c4)cc3F)c2C1 (stereo not shown) [Compound M001233],> 1000 nM
4,CC(=O)N1Cc2cc(C3COC(=O)N(C)C3)cc(N3CCCc4cc(-c5cnn(C)c5)c(C(F)F)cc43)c2C1 (stereo not shown) [Compound M001238],> 1000 nM
5,CNC(=O)N1CCc2cc(C3CCN(CC(C)O)C(=O)C3)cc(Nc3cc(C(F)F)c(-c4cnn(C)c4)cc3F)c2C1 (stereo not shown) [Compound M001240],> 1000 nM
6,CC(=O)N1Cc2cc(C3CCN(CC(C)O)C(=O)C3)cc(Nc3cc(C(F)F)c(-c4cnn(C)c4)cc3F)c2C1 (stereo not shown) [Compound M001241],> 1000 nM
7,CC(=O)N1Cc2cc(C3CCN(CCO)C(=O)C3)cc(N3CCCc4cc(-c5cnn(C)c5)c(C(F)F)cc43)c2C1 (stereo not shown) [Compound M001247],> 1000 nM
8,CC(=O)N1Cc2cc(C3CCN(CCF)C(=O)C3)cc(N3CCCc4cc(-c5cnn(C)c5)c(C(F)F)cc43)c2C1 (stereo not shown) [Compound M001250],> 1000 nM
9,CC(=O)N1Cc2cc(C3CCN(CC(F)F)C(=O)C3)cc(N3CCCc4cc(-c5cnn(C)c5)c(C(F)F)cc43)c2C1 (stereo not shown) [Compound M001254],< 1000 nM
10,CC(=O)N1Cc2cc(C3CCCNC3=O)cc(N3CCCc4cc(-c5cnn(C)c5)c(C(F)F)cc43)c2C1 (stereo not shown) [Compound M001258],> 1000 nM
11,CCN1CCN(c2cc3c(c(N4CCCc5cc(-c6cnn(C)c6)c(C(F)F)cc54)c2)CN(C(C)=O)C3)CC1=O [Compound M001262],> 1000 nM
12,COC(=O)N1CCc2cc(C3CCOCC3)cc(N3CCCc4cc(-c5cnn(C)c5)c(C(F)F)cc43)c2C1 [Compound M001270],> 1000 nM
13,COC(=O)N1CCc2cc(C3CCC(OC)CC3)cc(N3CCCc4cc(-c5cnn(C)c5)c(C(F)F)cc43)c2C1 (stereo not shown) [Compound M001271],> 1000 nM
14,CC(=O)N1Cc2cc(C3CCN(O)CC3)cc(N3CCCc4cc(-c5cnn(C)c5)c(C(F)F)cc43)c2C1 [Compound M001277],> 1000 nM

# Second part, the compound after the results:
row,IC50,SMILES
1,> 1000 nM,CNC(=O)N1CCc2cc(C3CCC(=O)N(CC(C)O)C3)cc(N3CCCc4cc(-c5cnn(C)c5)c(C(F)F)cc43)c2C1 (stereo not shown) [Compound M001223]
2,> 1000 nM,CC(=O)N1Cc2cc(C3CCC(=O)N(CC(C)O)C3)cc(N3CCCc4cc(-c5cnn(C)c5)c(C(F)F)cc43)c2C1 (stereo not shown) [Compound M001226]
3,> 1000 nM,CNC(=O)N1CCc2cc(C3CCN(CCO)C(=O)C3)cc(N3CCCc4cc(-c5cnn(C)c5)c(C(F)F)cc43)c2C1 (stereo not shown) [Compound M001248]
4,> 1000 nM,CNC(=O)N1CCc2cc(C3CCN(CCF)C(=O)C3)cc(N3CCCc4cc(-c5cnn(C)c5)c(C(F)F)cc43)c2C1 (stereo not shown) [Compound M001251]
5,< 1000 nM,CNC(=O)N1CCc2cc(C3CCN(CC(F)F)C(=O)C3)cc(N3CCCc4cc(-c5cnn(C)c5)c(C(F)F)cc43)c2C1 (stereo not shown) [Compound M001255]
6,> 1000 nM,CNC(=O)N1CCc2cc(C3CCC(=O)N(CCF)C3)cc(N3CCCc4cc(-c5cnn(C)c5)c(C(F)F)cc43)c2C1 (stereo not shown) [Compound M001256]
7,> 1000 nM,CC(=O)N1Cc2cc(C3CCC(=O)N(CCF)C3)cc(N3CCCc4cc(-c5cnn(C)c5)c(C(F)F)cc43)c2C1 (stereo not shown) [Compound M001257]
8,> 1000 nM,"CNC(=O)N1CCc2cc(C3CCN(O)CC3)cc(N3CCCc4cc(-c5cnn(C)c5)c(C(F)F)cc43)c2C1 [Compound M001276, 8-[7-(difluoromethyl)-6-(1-methylpyrazol-4-yl)-3,4-dihydro-2H-quinolin-1-yl]-6-(1-hydroxypiperidin-4-yl)-N-methyl-3,4-dihydro-1H-isoquinoline-2-carboxamide]"
